Columns and labels:
[1] = tested on: human fetal lung fibroblasts (FL3); test: TUNEL assay; assay type: cell-based; details: FL3 cells exposed to control siRNA
Experimental: TUNEL assays were performed using the in situ Cell Death Detection Kit, TMR Red (Roche). Human fetal lung fibroblasts were cultured on chamber slides (Lab-Tek), treated with 200 ng/ml doxorubicin (Sigma) for 24 hours, fixed with methanol at −20° C. for 10 minutes and incubated with the TUNEL labeling mixture for 1 hour at 37° C. Slides were then washed with PBS and mounted in Prolong Gold antifade reagent with DAPI (Invitrogen) and imaged at 20× magnification.

[2] = tested on: human fetal lung fibroblasts; test: Custom tiling array RNA hybridization (ncRNA expression); assay type: cell-based; details: doxorubicin-treated human fetal lung fibroblasts; tiling array and qRT-PCR; of 216 ncRNAs
From the text: A custom tiling array (Roche NimbleGen) was designed at 5 bp resolution across 25 kb of the 9p21 region (which encompasses CDKN2A, P14ARF and CDKN2B), as well as from 10 kb upstream to 2 kb downstream of each TSS from 53 other cell-cycle genes, including those encoding cyclins, CDKs and CDKIs (Table 1). In addition, the HOXA and HOXD loci were placed on the array as a control. Briefly, RNA was amplified (MessageAmp Kit, Ambion), reverse transcribed (RETROscript Kit, Ambion), labeled and hybridized according to the standard NimbleGen protocol.
Robust multichip average normalized single channel data from each array were subjected to peak calling using the NimbleScan program (Roche NimbleGen) with a window size of 50. Peaks with a peak score greater than ten were considered significant transcriptional units. […]
A peak calling algorithm searched for statistically significant signals above background and detected contiguous regions (peaks) of at least 50 bp. […] Averaging the signal intensity across all probes in a peak produced a quantitative estimate of transcript abundance. Despite possible 3′ bias caused by polyadenylated RNA selection, our procedure detected exon 1 transcription from the majority of cell-cycle coding genes (41 of the 56), showing that this custom tiling array can detect previously reported transcribed regions. […]

[3] = tested on: human fetal lung fibroblasts (FL3); test: Quantitative RT-PCR of lncRNA expression, doxorubicin time course; assay type: cell-based; details: 24 hour time course
Experimental: Total RNA was extracted from cells using the TRIzol reagent (Invitrogen) and the RNeasy Mini Kit (Qiagen), and genomic DNA was eliminated using TURBO DNA-free (Ambion). RT-PCR using 50-250 ng of total RNA was performed using the One-Step RT-PCR Master Mix (Applied Biosystems) using TaqMan Gene Expression Assays and normalized to GAPDH. Strand-specific RT-PCR for PANDA was performed using the One-Step RT-PCR Master Mix SYBR Green (Stratagene)).
A panel of TaqMan custom ncRNA assays was developed targeting 60 of the 219 new transcribed regions using the ‘single-exon’ design mode. The transcript specificity and genome specificity of all TaqMan assays were verified using a position-specific alignment matrix to predict potential cross reactivity between designed assays and genome-wide nontarget transcripts or genomic sequences. […]
Our co-expression maps predicted associations of several lncRNAs with DNA damage response pathways (FIG. 3C and FIG. 11). […] In order to confirm whether these lncRNAs may be responsive to DNA damage, we measured the expression changes of 60 lncRNAs predicted in the DNA damage pathway (as well as upst:CDKN1A:−800) by quantitative RT-PCR in human fetal lung fibroblasts treated with doxorubicin over a 24 hour time course. […]

NF-YA [4] = biological target: T1, NF-YA (Homo sapiens, UniProt P23511); test: RNA immunoprecipitation of NF-YA; assay type: binding; details: doxorubicin-treated primary human lung fibroblasts, qRT-PCR
T1 construct: RNA chromatography of PANDA from doxorubicin-treated FL3 cell lysates; endogenous in cells; host or cells: doxorubicin-treated human fetal lung fibroblasts (FL3)
Experimental: Ten million cells were treated with 200 ng/ml doxorubicin for 16 hours, trypsinized and crosslinked with 1% formaldehyde for 10 minutes, followed by the addition of 0.125 M glycine for 5 minutes. After two PBS washes, cells were lysed with 2× volume of Buffer A (10 mM HEPES pH 7.5, 1.5 mM MgCl2, 10 mM KCl, 0.5 mM DTT, 1 mM PMSF) for 15 minutes on ice at 150 r.p.m. NP-40 was added to a final concentration of 0.25% for 5 minutes on ice. Lysates were centrifuged for 3 minutes at 2,000 r.p.m., and the supernatant (cytosol) was collected. Next, an equal volume of Buffer C as that used of Buffer A was added to the pellet for 20 minutes with frequent vortex (20 mM HEPES pH 7.5, 10% glycerol, 0.42 M KCl, 4 mM MgCl2, 0.5 mM DTT, and 1 mM PMSF). Nuclear lysates were dounced for 5 seconds using a motorized pestle and sonicated for 7 minutes using a Diagenode Sonicator (30 seconds on, 30 seconds off, power setting H). Nuclear and cytoplasmic lysates were combined and centrifuged for 15 minutes at 13,000 r.p.m. Supernatants were transferred into micro spin columns (Pierce 89879), and 2 μg of antibody was added and incubated overnight. We washed 10 μl of Protein A/G UltraLink Resin (Pierce 53132) three times with RIP wash buffer (50 mM TrisHcl pH 7.9, 10% glycerol, 100 mM KCl, 5 mM MgCl2, 10 mM B-me and 0.1% NP-40) and added it to the immunoprecipitation reaction for 1 hour at 4° C. […]

NF-YA [5] = biological target: T1, NF-YA; test: RNAse mediated RNA chromatography; assay type: binding; details: in vitro transcribed RNA; lysates of doxorubicin-treated human fibroblasts
Experimental: (§1) RNAse mediated RNA chromatography (Michlewski et al. (2010) RNA 16:1673-1678, herein incorporated by reference in its entirety) was performed as previously described with the following modifications: 6 pmols of RNA (PANDA or a 1.2-kb fragment of LacZ) were used per reaction. RNA was folded (90° C. for 2 minutes, ice for 2 minutes), supplied with RNA structure buffer (Ambion) and shifted to room temperature (22-25° C.) for 20 minutes before conjugation to beads. RNAse digestion was performed with 5 μl of RNase A/T1 cocktail (Ambion) and 2 μl of RNase V1 (Ambion). Cellular lysates were prepared as follows: 10 million doxorubicin treated cells (16 hours) were incubated in 200 μl PBS, 600 μl H20 and 200 μl nuclear lysis buffer (1.28 M sucrose; 40 mM Tris-HCl pH 7.5; 20 mM MgCl2; 4% Triton X-100) on ice for 20 minutes. Nuclei were pelleted by centrifugation at 2,500 g for 15 minutes. The nuclear pellet was resuspended in 1 ml RIP buffer (150 mM KCl, 25 mM Tris pH 7.4, 0.5 mM DTT, 0.5% NP40, 1 mM PMSF and protease inhibitor (Roche Complete Protease Inhibitor Cocktail Tablets)). Resuspended nuclei were sheared using a motorized douncer for 5 seconds. Nuclear membrane and debris were pelleted by centrifugation at 18,000 g for 10 minutes.
(§2) Core promoters of cell death genes downstream of p53 are distinguished from other p53 target genes by the binding site for the transcription factor NF-YA (Morachis et al. (2010) Genes Dev. 24:135-147), and we reasoned that PANDA may affect NF-YA function. […] NF-YA is a nuclear transcription factor that activates the p53-responsive promoter of FAS upon DNA damage (Morachis et al. (2010) Genes Dev. 24:135-147). […] Thus, PANDA binding to NF-YA may evict or prevent NF-YA binding to chromatin. […] CDKN1A mRNA produces p21 to mediate arrest, whereas PANDA impedes NF-YA activation of apoptotic gene expression program (FIG. 8).

p21 = biological target: T2, p21 (Homo sapiens, UniProt P38936); test: RNAse mediated RNA chromatography; assay type: binding; details: lysates of doxorubicin-treated human fibroblasts
T2 construct: RNA chromatography of PANDA from doxorubicin-treated FL3 cell lysates; endogenous in cells; host or cells: doxorubicin-treated human fetal lung fibroblasts (FL3)
Experimental: as §1, §2

EZH2 = biological target: T3, EZH2 (Homo sapiens, UniProt Q15910); test: RNAse mediated RNA chromatography; assay type: binding; details: lysates of doxorubicin-treated human fibroblasts
T3 construct: RNA chromatography of PANDA from doxorubicin-treated FL3 cell lysates; endogenous in cells; host or cells: doxorubicin-treated human fetal lung fibroblasts (FL3)
Experimental: as §1, §2

LSD1 = biological target: T4, LSD1 (Homo sapiens, UniProt O60341); test: RNAse mediated RNA chromatography; assay type: binding; details: lysates of doxorubicin-treated human fibroblasts
T4 construct: RNA chromatography of PANDA from doxorubicin-treated FL3 cell lysates; endogenous in cells; host or cells: doxorubicin-treated human fetal lung fibroblasts (FL3)
Experimental: as §1, §2

T1 sequence (P23511 whole entry): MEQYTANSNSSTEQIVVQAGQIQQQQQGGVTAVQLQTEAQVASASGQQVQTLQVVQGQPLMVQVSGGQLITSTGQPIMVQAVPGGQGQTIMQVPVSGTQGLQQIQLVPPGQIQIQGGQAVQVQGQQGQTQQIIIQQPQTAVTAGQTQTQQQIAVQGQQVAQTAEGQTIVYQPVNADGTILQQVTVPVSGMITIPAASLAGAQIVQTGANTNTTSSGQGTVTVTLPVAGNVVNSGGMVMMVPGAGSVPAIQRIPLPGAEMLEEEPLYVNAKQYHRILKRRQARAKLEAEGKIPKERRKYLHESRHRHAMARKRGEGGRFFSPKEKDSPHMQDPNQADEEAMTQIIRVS
T2 sequence (P38936 whole entry): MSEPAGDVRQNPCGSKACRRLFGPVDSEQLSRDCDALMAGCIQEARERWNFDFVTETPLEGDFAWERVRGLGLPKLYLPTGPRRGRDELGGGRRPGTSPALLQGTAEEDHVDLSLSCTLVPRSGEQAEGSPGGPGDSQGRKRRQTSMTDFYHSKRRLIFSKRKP
T3 sequence (Q15910 whole entry): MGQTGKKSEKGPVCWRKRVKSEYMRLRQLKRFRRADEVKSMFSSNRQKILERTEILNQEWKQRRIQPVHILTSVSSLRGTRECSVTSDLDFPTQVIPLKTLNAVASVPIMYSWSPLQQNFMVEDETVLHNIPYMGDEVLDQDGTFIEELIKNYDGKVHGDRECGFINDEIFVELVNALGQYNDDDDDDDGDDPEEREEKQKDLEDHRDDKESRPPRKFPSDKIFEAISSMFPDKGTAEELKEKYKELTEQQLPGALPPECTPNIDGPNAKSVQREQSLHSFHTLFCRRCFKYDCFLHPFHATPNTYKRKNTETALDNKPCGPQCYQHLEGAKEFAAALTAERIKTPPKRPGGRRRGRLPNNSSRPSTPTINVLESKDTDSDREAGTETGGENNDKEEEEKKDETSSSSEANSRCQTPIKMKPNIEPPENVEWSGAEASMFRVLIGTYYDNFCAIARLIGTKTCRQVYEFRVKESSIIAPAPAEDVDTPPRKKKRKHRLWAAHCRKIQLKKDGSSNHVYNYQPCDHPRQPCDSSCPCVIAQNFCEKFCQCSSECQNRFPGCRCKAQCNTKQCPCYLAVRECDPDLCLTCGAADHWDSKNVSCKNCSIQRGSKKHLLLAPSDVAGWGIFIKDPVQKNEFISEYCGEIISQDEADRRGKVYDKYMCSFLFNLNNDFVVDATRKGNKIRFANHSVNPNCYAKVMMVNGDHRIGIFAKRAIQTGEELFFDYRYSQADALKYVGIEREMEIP
T3 sequence (O75530 whole entry partner): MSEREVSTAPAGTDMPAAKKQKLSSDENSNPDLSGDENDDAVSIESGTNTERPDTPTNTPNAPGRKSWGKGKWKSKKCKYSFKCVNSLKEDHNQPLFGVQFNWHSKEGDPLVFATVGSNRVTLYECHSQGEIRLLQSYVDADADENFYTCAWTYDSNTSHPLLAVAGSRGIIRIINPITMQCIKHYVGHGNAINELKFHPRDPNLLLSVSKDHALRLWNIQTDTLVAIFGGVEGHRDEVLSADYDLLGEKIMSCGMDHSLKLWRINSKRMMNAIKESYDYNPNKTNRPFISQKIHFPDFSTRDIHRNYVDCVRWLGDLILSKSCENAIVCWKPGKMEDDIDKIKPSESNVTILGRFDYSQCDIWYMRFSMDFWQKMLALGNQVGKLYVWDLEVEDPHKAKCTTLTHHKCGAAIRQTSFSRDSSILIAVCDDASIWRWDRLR
T3 sequence (Q15022 whole entry partner): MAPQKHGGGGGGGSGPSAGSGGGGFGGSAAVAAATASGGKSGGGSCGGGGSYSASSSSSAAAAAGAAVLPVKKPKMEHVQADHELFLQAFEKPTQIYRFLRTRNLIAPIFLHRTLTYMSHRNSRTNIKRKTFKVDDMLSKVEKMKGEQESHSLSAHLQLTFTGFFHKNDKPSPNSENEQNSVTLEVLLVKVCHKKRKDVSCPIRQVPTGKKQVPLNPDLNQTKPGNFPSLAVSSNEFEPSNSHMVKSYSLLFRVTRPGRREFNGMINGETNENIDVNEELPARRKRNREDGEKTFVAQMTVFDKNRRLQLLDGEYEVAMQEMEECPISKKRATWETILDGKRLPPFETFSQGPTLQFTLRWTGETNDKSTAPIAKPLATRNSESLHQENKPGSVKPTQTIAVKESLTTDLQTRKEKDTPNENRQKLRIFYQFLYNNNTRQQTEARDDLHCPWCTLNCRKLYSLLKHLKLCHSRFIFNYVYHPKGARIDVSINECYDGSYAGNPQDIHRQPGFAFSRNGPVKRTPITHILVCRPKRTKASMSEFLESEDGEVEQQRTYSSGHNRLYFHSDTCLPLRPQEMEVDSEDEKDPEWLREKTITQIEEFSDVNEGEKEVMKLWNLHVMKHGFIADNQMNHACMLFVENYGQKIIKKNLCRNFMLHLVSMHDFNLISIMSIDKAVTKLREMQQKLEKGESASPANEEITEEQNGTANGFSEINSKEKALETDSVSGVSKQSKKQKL

Row | Molecule | apoptosis as measured by TUNEL [1] | ncRNAs with at least two-fold change [2] | expression of lncRNAs surrounding the CDKN1A TSS [3] | induction of Upst:CDKN1A:−4,845 (PANDA) upon DNA damage [3] | retrieval of endogenous PANDA by immunoprecipitation of NF-YA (NF-YA [4]) | retrieval of NF-YA from cellular lysates (NF-YA [5]) | retrieval of p21 (p21) | retrieval of EZH2 (EZH2) | retrieval of LSD1 (LSD1)
1 | COc1cccc2c1C(=O)c1c(O)c3c(c(O)c1C2=O)C[C@@](O)(C(=O)CO)C[C@@H]3O[C@H]1C[C@H](N)[C@H](O)[C@H](C)O1 [doxorubicin] | little to no apoptosis | 12 of the 216 | all five of the tested lncRNAs surrounding the CDKN1A TSS were induced | up to 40 fold | – | – | – | – | –
2 | PANDA: P21-Associated NcRNA, DNA damage Activated; 1.5-kb long non-coding RNA | – | – | – | – | specifically retrieved | specifically retrieved | did not retrieve | did not retrieve | did not retrieve

Source: US9062351B2, “Diagnostic, prognostic and therapeutic uses of long non-coding RNAs for cancer and regenerative medicine” (The Board of Trustees of the Leland Stanford Junior …, priority 2011, dated 2015)
